US10556856B2, “Antibacterial agents” (Rutgers, The State University of New Jersey, priority 2014, dated 2020)
“And” between values parts separate entries of the source, which are not always exact repeats. Equal values may be shown once. Where a name gives a salt, the structure may show the parent alone. Read-outs that look alike come from different tables or passages of the source.

Experiments:
[1] = tested on: Listeria monocytogenes ATCC 49594; test: Broth microdilution assay
[2] = tested on: Pseudomonas aeruginosa ATCC 14213; test: Broth microdilution assay
[3] = tested on: S. aureus; test: Test A MIC/MBC study; type: cell-based; conditions: Staphylococcus aureus; for MBC: killing of ≥99.9% of the organisms; for MIC: tryptic soy broth, 37° C. overnight
Method: (§1) MIC/MBC studies were conducted according to a modified literature procedure (LaDow JE, et al. European Journal of Medicinal Chemistry. 46 (2011) 4219-4226). In brief, stock amphiphile solutions were made in 1 mL double-distilled water (0.1M C8 and C10; 0.02M C12), filter sterilized, and sonicated for five minutes. Stocks were then diluted 100× in tryptic soy broth and vortexed. This broth was serially diluted in fresh broth and 100 μL “doped” broth was transferred to 96-well microtiter plate. 10^6 Cfu/mL inoculums were prepared for E. coli and S. aureus. 100 μL inoculum was added to the wells. Plates were put on a shaker for 5 minutes to mix inoculum and broth. Plates were incubated at 37° C. overnight. Wells were visually analyzed the next day by growth or no growth. After MICs were determined, aliquots were taken from each well, plated, and incubated to determine the MBC values for each compound. MBC values were defined as killing of ≥99.9% of the organisms, which corresponds to a 3-log reduction.

[4] = tested on: E. coli; test: Test A MIC/MBC study; type: cell-based; conditions: for MBC: killing of ≥99.9% of the organisms; for MIC: tryptic soy broth, 37° C. overnight
Method: as §1

[5] = tested on: Escherichia coli ATCC 43895; test: Broth microdilution assay
[6] = tested on: Staphylococcus aureus Rosenbach ATCC 29213; test: Broth microdilution assay
[7] = tested on: Vero Cell
[8] = tested on: B. cepacia; test: CLSI/NCCLS broth microdilution assay; type: cell-based; conditions: 18 hours
[9] = tested on: E. faecium; test: CLSI/NCCLS broth microdilution assay; type: cell-based
[10] = tested on: S. aureus; type: cell-based
[11] = tested on: B. cereus; test: CLSI/NCCLS broth microdilution assay; type: cell-based
[12] = tested on: P. aeruginosa; test: CLSI/NCCLS broth microdilution assay; type: cell-based; conditions: 18 hours
[13] = tested on: S. epidermidis; test: CLSI/NCCLS broth microdilution assay; type: cell-based
[14] = tested on: B. neotomae; test: CLSI/NCCLS broth microdilution assay; type: cell-based; conditions: 18 hours
[15] = tested on: L. pneumophilia; test: CLSI/NCCLS broth microdilution assay; type: cell-based; conditions: 18 hours
[16] = tested on: K. pneumoniae; test: CLSI/NCCLS broth microdilution assay; type: cell-based; conditions: 18 hours
[17] = tested on: Y. pseudotuberculosis; type: cell-based; conditions: 18 hours
[18] = tested on: A. baumannii; test: CLSI/NCCLS broth microdilution assay; type: cell-based; conditions: 18 hours
[19] = L. monocytogenes (G+), TSB, 37° C., 24 h
[20] = P. aeruginosa (G−), TSB, 37° C., 24 h
[21] = Escherichia coli, read-out: MIC
[22] = E. coli (G−), TSB, 37° C., 24 h
[23] = S. aureus (G+), TSB, 37° C., 24 h
[24] = Listeria monocytogenes, ATCC49594, 24 h
[25] = Pseudomonas aeruginosa, ATCC14213, 24 h
[26] = Escherichia coli, ATCC43895, 24 h
[27] = Staphylococcus aureus, ATCC29213, 24 h

Q: `CCCNC(=O)[C@H](OC(=O)CCCCCCCN)[C@@H](OC(=O)CCCCCCCN)C(=O)NCCC.Cl.Cl` [Amphiphile B7] was tested. Which MIC [1, 19] did it give?
A: 500 µM

Q: What about the MIC [2, 20] of the same compound?
A: 1000 µM

Q: And the MBC [3]?
A: 500 µM and 294 µg/mL

Q: What about the MIC [3] of the same compound?
A: 500 µM and 294 µg/mL

Q: What about the MBC ([4]; Escherichia coli) of the same compound?
A: 1000 µM and 588 µg/mL

Q: And the MIC [4, 21]?
A: 1000 µM and 588 µg/mL

Q: And the MIC [5, 22]?
A: 1000 µM

Q: What about the MIC [6, 23] of the same compound?
A: 500 µM

Q: What does the source list for `CCCNC(=O)[C@H](OC(=O)CCCCCCCCCN)[C@@H](OC(=O)CCCCCCCCCN)C(=O)NCCC.Cl.Cl` [Amphiphile B9]?
A: MIC [1, 19]: 125 µM; MIC [2, 20]: 250 µM; MBC [3]: 250 µM and 171 µg/mL; MIC [3]: 125 µM and 80.5 µg/mL; MBC ([4]; Escherichia coli): 500 µM and 322 µg/mL; MIC [4, 21]: 500 µM and 322 µg/mL; MIC [5, 22]: 500 µM; MIC [6, 23]: 125 µM

Q: How did the MIC [1, 19] turn out when `CCCNC(=O)[C@H](OC(=O)CCCCCCCCCCCN)[C@@H](OC(=O)CCCCCCCCCCCN)C(=O)NCCC.Cl.Cl` [Amphiphile B11] was run?
A: 12.5 µM

Q: What about the “Vero Cell Cytotoxicity” value [7] of the same compound?
A: 50 µg/mL

Q: And the MIC [8]?
A: >50 µg/mL

Q: And the MIC ([9]; E. faecium, 18 hours)?
A: 25 µg/mL

Q: And the MIC [2, 20]?
A: 50 µM

Q: What about the MIC ([10]; S. aureus, 18 hours) of the same compound?
A: 25 µg/mL

Q: What about the MBC [3] of the same compound?
A: 50 µM and 35 µg/mL

Q: And the MIC [3]?
A: 25 µM and 17.5 µg/mL

Q: And the MBC ([4]; Escherichia coli)?
A: 400 µM and 280 µg/mL

Q: What about the MIC [4, 21] of the same compound?
A: 400 µM and 280 µg/mL

Q: And the MIC ([11]; B. cereus, 18 hours)?
A: 50 µg/mL

Q: What about the MIC [12] of the same compound?
A: >50 µg/mL

Q: What about the MIC ([13]; S. epidermidis, 18 hours) of the same compound?
A: 25 µg/mL

Q: And the MIC [14]?
A: 25 µg/mL

Q: And the MIC [15]?
A: >50 µg/mL

Q: And the MIC [5, 22]?
A: 100 µM

Q: What about the MIC [16] of the same compound?
A: >50 µg/mL

Q: And the MIC [6, 23]?
A: 25 µM

Q: And the MIC [17]?
A: >50 µg/mL

Q: What about the MIC [18] of the same compound?
A: >50 µg/mL

Q: Which results are given for `CCCCCCCCC(=O)OC(C(=O)NCCN)C(OC(=O)CCCCCCCC)C(=O)NCCN.Cl.Cl` (stereo not shown) [Amphiphile G7]?
A: MIC [1, 19]: 63 μM and 62.5* μM; Vero Cell Cytotoxicity [7]: >50 µg/mL; MIC [8]: >50 µg/mL; MIC ([9]; E. faecium, 18 hours): 6.25 µg/mL; MIC [2, 20]: 125 µM; MIC ([11]; B. cereus, 18 hours): 6.25 µg/mL; MIC [12]: 25 µg/mL; MIC [13]: 12.5 µg/mL; MIC [14]: 3.125 µg/mL; MIC [5, 22]: 63 µM; MIC [16]: 50 µg/mL; MIC [6, 23]: 63 μM and 62.5* μM; MIC [17]: 12.5 µg/mL; MIC [18]: >50 µg/mL

Q: With `CCCCCCCCCCC(=O)OC(C(=O)NCCN)C(OC(=O)CCCCCCCCCC)C(=O)NCCN.Cl.Cl` (stereo not shown) [Amphiphile G9] as the compound, how does the MIC [1, 19] read?
A: 250 µM

Q: What about the “Vero Cell Cytotoxicity” value [7] of the same compound?
A: 50 µg/mL

Q: And the MIC [8]?
A: >50 µg/mL

Q: And the MIC [9]?
A: 6.25 µg/mL

Q: And the MIC [2, 20]?
A: 250 µM

Q: What about the MIC [10] of the same compound?
A: 6.25 µg/mL

Q: What about the MIC [11] of the same compound?
A: 6.25 µg/mL

Q: What about the MIC [12] of the same compound?
A: >50 µg/mL

Q: And the MIC [13]?
A: 6.25 µg/mL

Q: And the MIC [14]?
A: 3.125 µg/mL

Q: And the MIC [15]?
A: 25 µg/mL

Q: What about the MIC [5, 22] of the same compound?
A: 125 µM

Q: And the MIC [16]?
A: >50 µg/mL

Q: And the MIC [6, 23]?
A: 500 µM

Q: What about the MIC [17] of the same compound?
A: 6.25 µg/mL

Q: What about the MIC [18] of the same compound?
A: >50 µg/mL

Q: `CCCCCCCCCCCCCCCC[N+](C)(C)C` [CTAB, Cetyltrimethylammonium bromide, reference compound] was tested. Which MIC [1, 24] did it give?
A: 8 µM

Q: And the MIC [2, 25]?
A: 16 µM

Q: And the MIC [5, 26]?
A: 32 µM

Q: And the MIC [6, 27]?
A: 4 µM

Q: Which results are given for `CCCCCCCCCCCCOS(=O)(=O)[O-].[Na+]` [SDS, Sodium dodecyl sulfate, reference compound]?
A: MIC [1, 24]: 2000 µM; MIC [2, 25]: > 2000 µM; MIC [5, 26]: > 2000 µM; MIC [6, 27]: 1000 µM

Q: What does the source list for `[H]/N=C(/N)N[C@H]1[C@H](O)[C@@H](O)[C@H](O[C@@H]2O[C@@H](C)[C@](O)(C=O)[C@H]2O[C@@H]2O[C@@H](CO)[C@H](O)[C@@H](O)[C@@H]2NC)[C@@H](N/C(N)=N\[H])[C@@H]1O` [Streptomycin Sulfate, reference compound]?
A: MBC [3]: < 100 µg/mL; MIC [3]: < 100 µg/mL; MBC ([4]; Escherichia coli): < 100 µg/mL; MIC [4, 21]: < 100 µg/mL; MIC [4]: <100 (<100) μg/mL
